± gives the expanded uncertainty stated by the source.
How the values were obtained:
[1] = refractive index (Na D-line) (dimensionless); conditions: 101.33 kPa, Liquid, Standard Abbe refractometry
[2] = for mass density / viscosity: 101.33 kPa, Liquid; for Glass transition temperature: DTA

C=CC[n+]1ccn(CCC#N)c1.[Cl-] [3-allyl-1-(2-cyanoethyl)-1H-imidazolium chloride]
refractive index ([1]; 293.15 K): 1.54731 ± 0.00043 | refractive index ([1]; 298.15 K): 1.54603 ± 0.00043 | refractive index ([1]; 303.15 K): 1.54478 ± 0.00043 | refractive index ([1]; 308.15 K): 1.54339 ± 0.00043 | refractive index ([1]; 313.15 K): 1.54208 ± 0.00043 | refractive index ([1]; 318.15 K): 1.54072 ± 0.00043 | refractive index ([1]; 323.15 K): 1.53945 ± 0.00043 | refractive index ([1]; 328.15 K): 1.53813 ± 0.00043 | refractive index ([1]; 333.15 K): 1.53682 ± 0.00043 | mass density ([2]; 293.15 K): 1173.79 ± 2.2 kg/m3 | mass density ([2]; 298.15 K): 1170.79 ± 2.2 kg/m3 | viscosity ([2]; 298.15 K): 17544 ± 2800 mPa·s | mass density ([2]; 303.15 K): 1167.79 ± 2.2 kg/m3 | viscosity ([2]; 303.15 K): 10294 ± 1500 mPa·s | mass density ([2]; 308.15 K): 1164.8 ± 2.2 kg/m3 | viscosity ([2]; 308.15 K): 5761 ± 740 mPa·s | mass density ([2]; 313.15 K): 1161.84 ± 2.1 kg/m3 | viscosity ([2]; 313.15 K): 3316 ± 380 mPa·s | mass density ([2]; 318.15 K): 1158.88 ± 2.1 kg/m3 | viscosity ([2]; 318.15 K): 2046 ± 200 mPa·s | mass density ([2]; 323.15 K): 1155.93 ± 2.1 kg/m3 | viscosity ([2]; 323.15 K): 1314 ± 120 mPa·s | mass density ([2]; 328.15 K): 1152.91 ± 2.1 kg/m3 | viscosity ([2]; 328.15 K): 873 ± 68 mPa·s | mass density ([2]; 333.15 K): 1150.01 ± 2.1 kg/m3 | viscosity ([2]; 333.15 K): 599 ± 40 mPa·s | mass density ([2]; 338.15 K): 1147.11 ± 2 kg/m3 | viscosity ([2]; 338.15 K): 423 ± 25 mPa·s | mass density ([2]; 343.15 K): 1144.22 ± 2 kg/m3 | viscosity ([2]; 343.15 K): 306 ± 15 mPa·s | mass density ([2]; 348.15 K): 1141.32 ± 2 kg/m3 | viscosity ([2]; 348.15 K): 226 ± 9 mPa·s | mass density ([2]; 353.15 K): 1138.42 ± 2 kg/m3 | viscosity ([2]; 353.15 K): 171 ± 6 mPa·s | Glass transition temperature [2]: -1.48 ± 4 °C

CCCC[n+]1ccn(CCC#N)c1.[Cl-] [3-butyl-1-(2-cyanoethyl)-1H-imidazol-3-ium chloride]
refractive index ([1]; 293.15 K): 1.52575 ± 0.00062 | refractive index ([1]; 298.15 K): 1.5243 ± 0.00062 | refractive index ([1]; 303.15 K): 1.52287 ± 0.00062 | refractive index ([1]; 308.15 K): 1.52139 ± 0.00062 | refractive index ([1]; 313.15 K): 1.51992 ± 0.00062 | refractive index ([1]; 318.15 K): 1.51846 ± 0.00062 | refractive index ([1]; 323.15 K): 1.51707 ± 0.00062 | refractive index ([1]; 328.15 K): 1.5156 ± 0.00062 | refractive index ([1]; 333.15 K): 1.51418 ± 0.00062 | mass density ([2]; 293.15 K): 1132.55 ± 3.3 kg/m3 | viscosity ([2]; 293.15 K): 4707 ± 580 mPa·s | mass density ([2]; 298.15 K): 1129.35 ± 3.2 kg/m3 | viscosity ([2]; 298.15 K): 2637 ± 280 mPa·s | mass density ([2]; 303.15 K): 1126.15 ± 3.2 kg/m3 | viscosity ([2]; 303.15 K): 1612 ± 150 mPa·s | mass density ([2]; 308.15 K): 1122.93 ± 3.2 kg/m3 | viscosity ([2]; 308.15 K): 1020 ± 84 mPa·s | mass density ([2]; 313.15 K): 1119.66 ± 3.1 kg/m3 | viscosity ([2]; 313.15 K): 668 ± 48 mPa·s | mass density ([2]; 318.15 K): 1116.49 ± 3.1 kg/m3 | viscosity ([2]; 318.15 K): 451 ± 27 mPa·s | mass density ([2]; 323.15 K): 1113.34 ± 3.1 kg/m3 | viscosity ([2]; 323.15 K): 314 ± 16 mPa·s | mass density ([2]; 328.15 K): 1110.18 ± 3 kg/m3 | viscosity ([2]; 328.15 K): 224 ± 10 mPa·s | mass density ([2]; 333.15 K): 1107.03 ± 3 kg/m3 | viscosity ([2]; 333.15 K): 164 ± 6 mPa·s | mass density ([2]; 338.15 K): 1103.87 ± 3 kg/m3 | viscosity ([2]; 338.15 K): 123 ± 3 mPa·s | mass density ([2]; 343.15 K): 1100.72 ± 2.9 kg/m3 | viscosity ([2]; 343.15 K): 94 ± 2 mPa·s | mass density ([2]; 348.15 K): 1097.57 ± 2.9 kg/m3 | viscosity ([2]; 348.15 K): 73 ± 1 mPa·s | mass density ([2]; 353.15 K): 1094.44 ± 2.9 kg/m3 | viscosity ([2]; 353.15 K): 58 ± 1 mPa·s | Glass transition temperature [2]: -5.23 ± 4 °C
